Earlier results in patent US20140187520A1, “STABLE INJECTABLE PHARMACEUTICAL COMPOSITION OF VITAMIN D RECEPTOR AGONIST AND PROCESS FOR PREPARATION THEREOF” (PHARMATHEN S.A., priority 2012, published 2014).

- solubility in alcohol (alcohol): soluble
- solubility in water (water): insoluble
Compound: C[C@H](/C=C/[C@H](C)C(C)(C)O)[C@H]1CC[C@H]2/C(=C/C=C3C[C@@H](O)C[C@H](O)C3)CCC[C@]12C [paricalcitol, 19-nor-1α,3β,25-trihydroxy-9,10-secoergosta-5(Z),7(E), 22(E)-triene]
